Patent US20240150377A1, “MODULATORS OF CYSTIC FIBROSIS TRANSMEMBRANE CONDUCTANCE REGULATOR” (VERTEX PHARMACEUTICALS INCORPORATED, priority 2020, published 2024)
Like-named read-outs stand apart in the source and are kept apart here.

Target: CFTR (Homo sapiens, UniProt P13569)
Assay: Membrane potential dye, Enteroid Assay A
Format: cell-based
Details: for Ent. A Max Activity: chloride transport as % of triple combination control (Enteroid Assay A); for EC50: human enteroid cells, 18-24 hours, acute 10 μM forskolin and 300 nM ivacaftor, read-out: Ent. A EC50
Method in brief: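 Human intestinal enteroids incubated 18-24 h at 37 °C with test compound, then loaded with 20 μM methyl oxonol (with CaCC inhibitors). Chloride transport triggered in chloride-free buffer with 10 μM forskolin, 100 μM IBMX, 300 nM Compound III; fluorescence read 15 min, expressed as % of a triple-combination corrector/potentiator control.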

CFTR, sequence (P13569 with tags, fused parts or gaps DEL508-508): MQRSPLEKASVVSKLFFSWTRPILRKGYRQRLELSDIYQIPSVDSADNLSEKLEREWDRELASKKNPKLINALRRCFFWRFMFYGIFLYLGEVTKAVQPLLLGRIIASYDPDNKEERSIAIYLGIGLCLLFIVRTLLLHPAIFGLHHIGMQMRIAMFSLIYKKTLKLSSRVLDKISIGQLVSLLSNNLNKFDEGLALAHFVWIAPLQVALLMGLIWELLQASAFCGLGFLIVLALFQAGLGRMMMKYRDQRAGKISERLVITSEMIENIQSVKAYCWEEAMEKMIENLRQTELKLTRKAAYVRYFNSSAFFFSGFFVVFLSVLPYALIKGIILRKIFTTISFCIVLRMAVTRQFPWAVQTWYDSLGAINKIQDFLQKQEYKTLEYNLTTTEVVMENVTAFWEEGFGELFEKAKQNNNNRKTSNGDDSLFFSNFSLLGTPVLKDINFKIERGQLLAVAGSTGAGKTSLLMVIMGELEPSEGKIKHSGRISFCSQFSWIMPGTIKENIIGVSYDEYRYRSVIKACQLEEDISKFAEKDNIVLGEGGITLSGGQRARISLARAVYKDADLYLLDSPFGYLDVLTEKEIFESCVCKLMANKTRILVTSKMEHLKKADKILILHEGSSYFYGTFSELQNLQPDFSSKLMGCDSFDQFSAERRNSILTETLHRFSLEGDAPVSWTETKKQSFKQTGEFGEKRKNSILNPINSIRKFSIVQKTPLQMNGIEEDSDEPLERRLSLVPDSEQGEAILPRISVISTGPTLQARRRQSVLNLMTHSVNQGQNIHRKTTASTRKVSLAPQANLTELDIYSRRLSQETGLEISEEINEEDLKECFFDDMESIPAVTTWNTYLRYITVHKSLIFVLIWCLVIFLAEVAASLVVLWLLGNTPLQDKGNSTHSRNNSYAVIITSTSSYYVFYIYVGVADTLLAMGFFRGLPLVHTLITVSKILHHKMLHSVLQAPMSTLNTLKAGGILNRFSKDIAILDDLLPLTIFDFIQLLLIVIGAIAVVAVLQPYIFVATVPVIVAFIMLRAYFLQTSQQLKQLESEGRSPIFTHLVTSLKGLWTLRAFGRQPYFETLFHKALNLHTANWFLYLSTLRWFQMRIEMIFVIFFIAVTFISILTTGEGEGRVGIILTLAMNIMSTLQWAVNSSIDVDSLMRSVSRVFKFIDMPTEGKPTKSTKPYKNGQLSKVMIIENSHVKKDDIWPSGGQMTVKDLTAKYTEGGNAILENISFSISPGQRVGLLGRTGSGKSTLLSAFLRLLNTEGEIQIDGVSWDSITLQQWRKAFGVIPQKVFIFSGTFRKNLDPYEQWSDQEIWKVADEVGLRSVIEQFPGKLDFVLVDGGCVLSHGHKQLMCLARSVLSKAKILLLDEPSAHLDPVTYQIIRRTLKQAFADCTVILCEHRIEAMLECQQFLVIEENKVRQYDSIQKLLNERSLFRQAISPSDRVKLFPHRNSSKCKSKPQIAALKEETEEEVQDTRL

Row | Ent. A Max Activity (Table 7) | EC50 (Table 7) | Ent. A Max Activity (Table 6) | EC50 (Table 6) | Compound
1 | ++ (++ is 30-60%) | < 1000 nM | – | – | Cc1cccc(C)c1-c1cc2nc(n1)NS(=O)(=O)c1cccc(c1)C(=O)N(C)C(c1ccc(C(C)(C)C)cc1)CO2 (stereo not drawn) [Compound 13, 11-(4-tert-butylphenyl)-6-(2,6-dimethylphenyl)-12-methyl-2,2-dioxo-9-oxa-2λ^6-thia-3,5,12,19-tetrazatricyclo[12.3.1.14,8]nonadeca-1(18),4(19),5,7,14,16-hexaen-13-one]
2 | – | – | ++ (++ is 30-60%) | 1000 to 3000 nM | Cc1cccc(C)c1-c1cc2nc(n1)NS(=O)(=O)c1cccc(c1)C(=O)N(Cc1ccc(P(C)(C)=O)cc1)[C@H](CC(C)C)CO2 [Compound 88, (11R)-6-(2,6-Dimethylphenyl)-12-[(4-dimethylphosphorylphenyl)methyl]-11-isobutyl-2,2-dioxo-9-oxa-2λ^6-thia-3,5,12,19-tetrazatricyclo[12.3.1.14,8]nonadeca-1(18),4(19),5,7,14,16-hexaen-13-one]
3 | – | – | +++ (+++ is >60%) | < 1000 nM | Cc1cccc(C)c1-c1cc2nc(n1)NS(=O)(=O)c1cccc(c1)C(=O)N(CC1CCOCC1)[C@H](CC(C)C)CO2 [Compound 352]
4 | – | – | +++ (+++ is >60%) | < 1000 nM | Cc1cccc(C)c1-c1cc2nc(n1)NS(=O)(=O)c1cccc(c1)C(=O)N(Cc1ccc(N3CCN(C)CC3)cc1)[C@H](CC(C)C)CO2 [Compound 856]
5 | – | – | +++ (+++ is >60%) | < 1000 nM | COc1ccccc1CN1C(=O)c2cccc(c2)S(=O)(=O)Nc2nc(cc(-c3c(C)cccc3C)n2)OC[C@H]1CC(C)C [Compound 349]
6 | – | – | +++ (+++ is >60%) | < 1000 nM | Cc1cccc(C)c1-c1cc2nc(n1)NS(=O)(=O)c1cccc(c1)C(=O)N(CC1CCCC1)[C@H](CC(C)C)CO2 [Compound 350]
7 | +++ (+++ is >60%) | < 1000 nM | – | – | Cc1cccc(C)c1-c1cc2nc(n1)NS(=O)(=O)c1cccc(c1)C(=O)N(C)C[C@H](c1ccc(-c3ccc(C(C)(C)C)cc3)cn1)O2 [Compound 510]
8 | – | – | +++ (+++ is >60%) | < 1000 nM | Cc1cccc(C)c1-c1cc2nc(n1)NS(=O)(=O)c1cccc(c1)C(=O)N(CCC1CCCCC1)[C@H](CC(C)C)CO2 [Compound 358]
9 | – | – | ++ (++ is 30-60%) | < 1000 nM | Cc1cccc(C)c1-c1cc2nc(n1)NS(=O)(=O)c1cccc(c1)C(=O)N(Cc1ccccc1)[C@@H](CCC1(C(F)(F)F)CC1)CO2 [Compound 852]
10 | – | – | +++ (+++ is >60%) | 3000 to 30000 nM | Cc1cccc(C)c1-c1cc2nc(n1)NS(=O)(=O)c1cccc(c1)C(=O)N(C)CC(CN(C)CCC(C)(C)C)O2 (stereo not drawn) [Compound 1014]
11 | – | – | ++ (++ is 30-60%) | 3000 to 30000 nM | Cc1cccc(C)c1-c1cc2nc(n1)NS(=O)(=O)c1cccc(c1)C(=O)N(Cc1ccccc1)C(C(=O)NC(C)(C)C)CO2 (stereo not drawn) [Compound 44, 12-benzyl-N-tert-butyl-6-(2,6-dimethylphenyl)-2,2,13-trioxo-9-oxa-2λ^6-thia-3,5,12,19-tetrazatricyclo[12.3.1.14,8]nonadeca-1(18),4(19),5,7,14,16-hexaene-11-carboxamide]
12 | – | – | +++ (+++ is >60%) | < 1000 nM | Cc1cccc(C)c1-c1cc2nc(n1)NS(=O)(=O)c1cccc(c1)C(=O)N(C)[C@H](CC(C)C)[C@H](C)O2 [Compound 991]
13 | – | – | ++ (++ is 30-60%) | < 1000 nM | Cc1cccc(C)c1-c1cc2nc(n1)NS(=O)(=O)c1cccc(c1)C(=O)N(C)CC(c1ccc(C3=CCOCC3)cc1)O2 (stereo not drawn) [Compound 675]
14 | – | – | + (+ is <30%) | – | Cc1cccc(C)c1-c1cc2nc(n1)NS(=O)(=O)c1cccc(c1)C(=O)N(C)[C@@H](CC(C)C)[C@H](c1ccc(C(C)(C)C)nc1)O2 [Compound 512]
15 | – | – | +++ (+++ is >60%) | < 1000 nM | Cc1cccc(C)c1-c1cc2nc(n1)NS(=O)(=O)c1cccc(c1)C(=O)N(CC(C)C)C[C@H](Cc1ccccc1)O2 [Compound 863]
16 | – | – | ++ (++ is 30-60%) | < 1000 nM | Cc1cccc(C)c1-c1cc2nc(n1)NS(=O)(=O)c1cccc(c1)C(=O)N(C)CC(c1ccc(C3CC3)cc1)O2 (stereo not drawn) [Compound 674]
17 | +++ (+++ is >60%) | < 1000 nM | – | – | Cc1cccc(C)c1-c1cc2nc(n1)NS(=O)(=O)c1cccc(c1)C(=O)N(C)C[C@@H](c1cccc(C(C)(C)C)c1)O2 (single isomer, unassigned) [Compound 17, 10-(3-tert-butylphenyl)-6-(2,6-dimethylphenyl)-12-methyl-2,2-dioxo-9-oxa-2λ^6-thia-3,5,12,19-tetrazatricyclo[12.3.1.14,8]nonadeca-1(18),4(19),5,7,14,16-hexaen-13-one]
18 | – | – | + (+ is <30%) | – | Cc1cccc(C)c1-c1cc2nc(n1)NS(=O)(=O)c1cccc(c1)C(=O)N(C)CCO2 [Compound 979]
19 | +++ (+++ is >60%) | < 1000 nM | – | – | Cc1cccc(C)c1-c1cc2nc(n1)NS(=O)(=O)c1cccc(c1)C(=O)N(C)[C@H](CC(C)C)C(c1ccccn1)O2 (stereo partly drawn) [Compound 337]
20 | – | – | +++ (+++ is >60%) | < 1000 nM | Cc1cccc(C)c1-c1cc2nc(n1)NS(=O)(=O)c1cccc(c1)C(=O)N(CCC(C)C)[C@H](CC(C)C)CO2 [Compound 369]

More lines, now with the values behind:

Row | Compound | Ent. A Max Activity (Table 7) | EC50 (Table 7) | Ent. A Max Activity (Table 6) | EC50 (Table 6)
21 | Cc1cccc(C)c1-c1cc2nc(n1)NS(=O)(=O)c1cccc(c1)C(=O)N(CC1CCCN1C(=O)OC(C)(C)C)[C@H](CC(C)C)CO2 (stereo partly drawn) [Compound 346] | – | – | +++ (+++ is >60%) | < 1000 nM
22 | Cc1cccc(C)c1-c1cc2nc(n1)NS(=O)(=O)c1cccc(c1)C(=O)N(Cc1ccc(N3CCC(O)CC3)nc1)[C@H](CC(C)C)CO2 [Compound 966] | +++ (+++ is >60%) | < 1000 nM | – | –
23 | CC(=O)N1CCC2(CC1)CC(CN1C(=O)c3cccc(c3)S(=O)(=O)Nc3nc(cc(-c4c(C)cccc4C)n3)OC[C@H]1CC(C)C)C2 [Compound 90, (11R)-12-[(7-Acetyl-7-azaspiro[3.5]nonan-2-yl)methyl]-6-(2,6-dimethylphenyl)-11-isobutyl-2,2-dioxo-9-oxa-2λ^6-thia-3,5,12,19-tetrazatricyclo[12.3.1.14,8]nonadeca-1(18),4(19),5,7,14,16-hexaen-13-one] | +++ (+++ is >60%) | < 1000 nM | – | –
24 | Cc1cccc(C)c1-c1cc2nc(n1)NS(=O)(=O)c1cccc(c1)CN(C(=O)CC1CCN(C)CC1)[C@H](CC(C)C)CO2 [Compound 1048] | +++ (+++ is >60%) | 1000 to 3000 nM | – | –
25 | Cc1cccc(C)c1-c1cc2nc(n1)NS(=O)(=O)c1cccc(c1)C(=O)N(Cc1cnc3ccccn13)[C@H](CC(C)C)CO2 [Compound 368] | – | – | +++ (+++ is >60%) | < 1000 nM
26 | Cc1cccc(C)c1-c1cc2nc(n1)NS(=O)(=O)c1cccc(c1)C(=O)N(Cc1ccccc1)C(C(=O)NCc1ccccc1)CO2 (stereo not drawn) [Compound 514] | – | – | + (+ is <30%) | 3000 to 30000 nM
27 | Cc1cccc(C)c1-c1cc2nc(n1)NS(=O)(=O)c1cccc(c1)C(=O)N(Cc1ccc(C(=O)O)nc1)[C@H](CC(C)C)CO2 [Compound 94, 5-{[(11R)-6-(2,6-dimethylphenyl)-11-(2-methylpropyl)-2,2,13-trioxo-9-oxa-2λ^6-thia-3,5,12,19-tetraazatricyclo[12.3.1.14,8]nonadeca-1(18),4(19),5,7,14,16-hexaen-12-yl]methyl}pyridine-2-carboxylic acid] | +++ (+++ is >60%) | 1000 to 3000 nM | – | –
28 | Cc1cccc(C)c1-c1cc2nc(n1)NS(=O)(=O)c1cccc(c1)C(=O)N(Cc1ccc(N3CCC4(CCC4)CC3)nc1)[C@H](CC(C)C)CO2 [Compound 936] | +++ (+++ is >60%) | < 1000 nM | – | –
29 | Cc1cccc(C)c1-c1cc2nc(n1)NS(=O)(=O)c1cccc(c1)CN(CC1CCOCC1)[C@H](CC(C)C)CO2 [Compound 1041] | +++ (+++ is >60%) | < 1000 nM | – | –
30 | Cc1cccc(C)c1-c1cc2nc(n1)NS(=O)(=O)c1cccc(c1)CN(CCn1c(=O)oc3ccccc31)[C@H](CC(C)C)CO2 [Compound 1039] | ++ (++ is 30-60%) | < 1000 nM | – | –
31 | Cc1cccc(C)c1-c1cc2nc(n1)NS(=O)(=O)c1cccc(c1)CN(Cc1cnc(C3CCCCC3)nc1)[C@H](CC(C)C)CO2 [Compound 1033] | ++ (++ is 30-60%) | < 1000 nM | – | –
32 | Cc1cccc(C)c1-c1cc2nc(n1)NS(=O)(=O)c1cccc(c1)CN(C(=O)CC(C)(C)C)[C@H](CC(C)C)CO2 [Compound 1046] | + (+ is <30%) | – | – | –
33 | Cc1cccc(C)c1-c1cc2nc(n1)NS(=O)(=O)c1cccc(c1)C(=O)N(Cc1ccc(N3CCN(C)CC3)nc1)[C@H](CC(C)C)CO2 [Compound 854] | – | – | +++ (+++ is >60%) | < 1000 nM
34 | Cc1cccc(C)c1-c1cc2nc(n1)NS(=O)(=O)c1cccc(c1)C(=O)N(CC1CC3C=C[C@@H]1C3)[C@H](CC(C)C)CO2 (stereo partly drawn) [Compound 351] | – | – | +++ (+++ is >60%) | < 1000 nM
35 | Cc1cccc(C)c1-c1cc2nc(n1)NS(=O)(=O)c1cccc(c1)C(=O)N(CCOC(C)(C)C)[C@H](CC(C)C)CO2 [Compound 427] | – | – | +++ (+++ is >60%) | < 1000 nM
36 | Cc1cccc(C)c1-c1cc2nc(n1)NS(=O)(=O)c1cccc(c1)C(=O)N(Cc1ccc(N3CCC(CO)CC3)nc1)[C@H](CC(C)C)CO2 [Compound 956] | +++ (+++ is >60%) | < 1000 nM | – | –
